Assay results from patent US7291580B2, “6-(1,1-difluoroalkyl)-4-aminopicolinates and their use as herbicides” (Dow AgroSciences LLC, priority 2004, dated 2007).

What was measured:
[1] = system: Barnyardgrass (Echinochloa crus-galli); assay: Postemergence herbicidal activity; assay type: in vivo; settings: visual score after 2 weeks, 0 = no injury, 100 = complete kill
Description: (§1) Seeds of the desired test plant species were planted in Grace-Sierra MetroMix® 306 planting mixture, which typically has a pH of 6.0 to 6.8 and an organic matter content of about 30 percent, in plastic pots with a surface area of 64 square centimeters. […] The plants were grown for 7-21 days in a greenhouse with an approximate 15 hr photoperiod which was maintained at about 23-29° C. during the day and 22-28° C. during the night. Nutrients and water were added on a regular basis and supplemental lighting was provided with overhead metal halide 1000-Watt lamps as necessary. The plants were employed for testing when they reached the first or second true leaf stage.
(§2) A weighed amount, determined by the highest rate to be tested, of each test compound was placed in a 20 mL glass vial and was dissolved in 4 mL of a 97:3 v/v (volume/volume) mixture of acetone and dimethyl sulfoxide (DMSO) to obtain concentrated stock solutions. […] The concentrated stock solutions obtained were diluted with an aqueous mixture containing acetone, water, isopropyl alcohol, DMSO, Atplus 411F crop oil concentrate, and Triton X-155 surfactant in a 48.5:39:10:1.5:1.0:0.02 v/v ratio to obtain spray solutions of known concentration. The solutions containing the highest concentration to be tested were prepared by diluting 2 mL aliquots of the stock solution with 13 mL of the mixture and lower concentrations were prepared by serial dilution of the stock solution. Approximately 1.5 mL aliquots of each solution of known concentration were sprayed evenly onto each of the test plant pots using a DeVilbiss atomizer driven by compressed air pressure of 2 to 4 psi (140 to 280 kiloPascals) to obtain thorough coverage of each plant. Control plants were sprayed in the same manner with the aqueous mixture. In this test an application rate of 1 ppm results in the application of approximately 1 g/Ha.
(§3) The treated plants and control plants were placed in a greenhouse as described above and watered by sub-irrigation to prevent wash-off of the test compounds. After 2 weeks the condition of the test plants as compared with that of the untreated plants was determined visually and scored on a scale of 0 to 100 percent where 0 corresponds to no injury and 100 corresponds to complete kill.

[2] = system: Cocklebur (Xanthium strumarium); assay: Postemergence herbicidal activity; assay type: in vivo; settings: visual score after 2 weeks, 0 = no injury, 100 = complete kill
Description: as §1, §2, §3

[3] = system: Giant Foxtail (Setaria faberi); assay: Postemergence herbicidal activity; assay type: in vivo; settings: visual score after 2 weeks, 0 = no injury, 100 = complete kill
Description: as §1, §2, §3

[4] = system: Lambsquarter (Chenopodium album); assay: Postemergence herbicidal activity; assay type: in vivo; settings: visual score after 2 weeks, 0 = no injury, 100 = complete kill
Description: as §1, §2, §3

[5] = system: Pigweed (redroot) (Amaranthus retroflexus); settings: rate 123 (unit not given); visual score after 2 weeks, 0 = no injury, 100 = complete kill
Description: as §1
(§4) A weighed amount, determined by the highest rate to be tested, of each test compound was placed in a 20 mL glass vial and was dissolved in 4 mL of a 97:3 v/v (volume/volume) mixture of acetone and dimethyl sulfoxide (DMSO) to obtain concentrated stock solutions. […]
as §3

[6] = system: Wheat (var.Merica) (Triticum aestivum); settings: rate 123 (unit not given); crop selectivity to wheat; visual score after 2 weeks, 0 = no injury, 100 = complete kill
Description: as §1, §4, §3

[7] = system: Crabgrass (large) (Digitaria sanguinalis); assay: Preemergence herbicidal activity; assay type: in vivo; settings: rate 560 ppm; visual score after 3 weeks, 0 = no injury, 100 = complete kill or no germination
Description: (§5) The soil matrix was contained in plastic pots with a surface area of 113 square centimeters. […] The stock solutions obtained were diluted with a 99.9:0.1 mixture of water and Tween® […] surfactant to obtain application solutions of known concentration. […] A 2.5 mL aliquot of each solution of known concentration was sprayed evenly onto the soil surface (113 sq. cm) of each seeded pot using a Cornwall 5.0 mL glass syringe fitted with a TeeJet TN-3 hollow cone nozzle to obtain thorough coverage of the soil in each pot. […] The water was added by top-irrigation.

[8] = system: Giant Foxtail (Setaria faberi); assay: Preemergence herbicidal activity; assay type: in vivo; settings: rate 560 ppm; visual score after 3 weeks, 0 = no injury, 100 = complete kill or no germination
Description: as §5

[9] = system: Ivyleaf Morningglory (Ipomoea hederacea); assay: Preemergence herbicidal activity; assay type: in vivo; settings: rate 560 ppm; visual score after 3 weeks, 0 = no injury, 100 = complete kill or no germination
Description: as §5

[10] = system: Lambsquarter (Chenopodium album); assay: Preemergence herbicidal activity; assay type: in vivo; settings: rate 560 ppm; visual score after 3 weeks, 0 = no injury, 100 = complete kill or no germination
Description: as §5

| Compound | Post-emergent (% injury) ECHCG ([1]; rate 245 ppm) | Post-emergent (% injury) XANST ([2]; rate 245 ppm) | Post-emergent (% injury) SETFA ([3]; rate 245 ppm) | Post-emergent (% injury) CHEAL ([4]; rate 123 (unit not given)) | Post-emergent (% injury) CHEAL ([4]; rate 245 ppm) | Post-emergent (% injury) AMARE [5] | Post-emergent (% injury) TRZAS [6] | Pre-emergent (% injury) DIGSA [7] | Pre-emergent (% injury) SETFA [8] | Pre-emergent (% injury) IPOHE [9] | Pre-emergent (% injury) CHEAL [10] | Post-emergent (% injury) ECHCG ([1]; rate 250 ppm) | Post-emergent (% injury) XANST ([2]; rate 250 ppm) | Post-emergent (% injury) SETFA ([3]; rate 250 ppm) | Post-emergent (% injury) CHEAL ([4]; rate 250 ppm) |
| --- | --- | --- | --- | --- | --- | --- | --- | --- | --- | --- | --- | --- | --- | --- | --- |
| COC(=O)c1nc(C(C)(F)F)cc(N)c1Cl [Compound 1, Methyl 4-amino-3-chloro-6-(1,1-difluroethyl)pyridine-2-carboxylate] | 75% | 100% | 65% | 100% | 100% | 100% | 0% | 100% | 100% | 100% | 100% | – | – | – | – |
| CC(F)(F)c1cc(N)c(Cl)c(C(=O)O)n1 [Compound 2, 4-amino-3-chloro-6-(1,1-difluoroethyl)pyridine-2-carboxylic acid] | – | – | – | – | – | – | – | 98% | 95% | 100% | 100% | 80% | 100% | 85% | 100% |
